{"source": "patent US20100159496A1", "about": "“EVALUATION METHOD FOR PHOTOSYNTHESIS SAMPLE, EVALUATION SYSTEM FOR PHOTOSYNTHESIS SAMPLE, AND EVALUATION PROGRAM FOR PHOTOSYNTHESIS SAMPLE” (HAMAMATSU PHOTONICS K.K., priority 2006, published 2010)", "system": "green algae", "assay": "Delayed luminescence of green algae in different redox states (first/second excitation light, waiting time), integration values", "type": "cell-based, Pseudokircheneriella subcapitata", "settings": "for percentage (% oQ) of the oxidized plastoquinone: DBMIB 322 μg/L (FIG. 43)", "source_text": "In determining the relationship between the waiting time and the temporal variation of delayed luminescence, first, white light of 500 μmol·m−2·s−1 was illuminated for 10 seconds onto the measurement sample as the first excitation light for saturating photosynthetic electron transport (first illumination condition). Thereafter, a step of not illuminating light onto the measurement sample (referred to hereinafter as “waiting”) was provided and then red light of 50 μmol·m−2·s−1 was illuminated for 2 seconds as the second excitation light. The second excitation light can make delayed luminescence be emitted while hardly changing the redox state of the photosynthetic sample. Such a process is performed repeatedly with the waiting being changed to 0, 2, 10, 30, and 60 seconds. In addition, measurement is also made for a case where the illumination of the first excitation light and waiting are not executed and just the illumination of the second excitation light is performed, that is, for the case where the photosynthetic electron transport is not saturated.\nIn the following, a case of computing an integration value for each of an integration range (measurement time period) of 0.1 to 0.5 seconds of time after excitation, an integration range of 0.6 to 10 seconds after excitation, and an integration range of 10.1 seconds to 50 seconds after excitation shall be described. Setting of the integration ranges is not restricted to the above. The number of integration ranges may any number as long as it is no less than 1. In a case where a plurality of integration ranges are set up, the respective integration ranges may be made equal or not equal in time width. Furthermore, the integration ranges may not only be mutually set apart by a predetermined time as in the present embodiment but integration ranges may be set so as to be adjacent each other (for example, an integration range of 0.1 to 0.5 seconds of time after excitation and an integration range of 0.5 seconds to 10 seconds of time after excitation may be set up) and integration ranges may be set so as to overlap with each other (for example, an integration range of 0.1 to 0.5 seconds of time after excitation and an integration range of 0.4 seconds to 10 seconds of time after excitation may be set up).\nIn each graph of FIG. 29, the abscissa expresses the measurement condition and the ordinate expresses the integration value (counts) of the delayed luminescence intensity. In the following, the integration value in the integration range of 0.1 to 0.5 seconds of time after excitation, the integration value in the integration range of 0.6 to 10 seconds after excitation, and the integration value in the integration range of 10.1 seconds to 50 seconds after excitation shall be referred to respectively as integration value 1, integration value 2, and integration value 3. FIGS. 29A, 29B, and 29C are graphs respectively of the integration value 1, integration value 2, and integration value 3.\nFirst, a method for computing an evaluation value for evaluating the electron accumulation state of the PSII of the photosynthetic sample shall be described. As one such type of evaluation value, there is, for example, a PSII electron accumulation change (en), which indicates how the electron accumulation in the PSII has changed. This value ell can be determined as: (integration value 1 of the evaluation sample)/(integration value 1 of the standard sample)×100. The PSII electron accumulation change (eII) can be computed for the respective conditions of non-saturation, 0-second waiting time, 10-second waiting time, and 60-second waiting time.\nAs mentioned above, the transient increase of the integration value 1 in the 0-second waiting time reflects increase of the electron accumulation in the PSII due to the takeout of electrons from the PSII becoming rate-limiting. […]", "key": {"[1]": {"settings": "all conditions (non-saturation, 0-, 10-, 60-second waiting time), DCMU 12 ug/L, Ant-A 0.55 mg/L"}}}
{"molecule": "CN(C)C(=O)Nc1ccc(Cl)c(Cl)c1", "note": "[DCMU, 3-(3,4-dichlorophenyl)-1,1-dimethyl-urea]", "values": [{"measurement": "integration value 1 (0.1 to 0.5 seconds after excitation) compared with standard sample", "setting": "0-second waiting time, DCMU 12 ug/L", "result": "a significant difference was not seen"}, {"measurement": "PSII electron takeout change (vII)", "setting": "DCMU 12 ug/L, tII of evaluation sample/tII of standard sample×100 (FIG. 42)", "result": "negative"}, {"measurement": "integration value 2 (0.6 to 10 seconds after excitation) compared with standard sample", "setting": "[1]", "result": "less than those of the standard sample"}, {"measurement": "integration value 3 (10.1 to 50 seconds after excitation) compared with standard sample", "setting": "[1]", "result": "less than those of the standard sample"}, {"measurement": "PSII electron accumulation change (eII)", "setting": "non-saturation state, DCMU 12 ug/L, integration value 1 of evaluation sample/standard sample×100 (FIG. 42)", "result": 188}, {"measurement": "integration value 1 (0.1 to 0.5 seconds after excitation) compared with standard sample", "setting": "non-saturation, 10-second and 60-second waiting time, DCMU 12 ug/L", "result": "nearly twice the values of the standard sample"}]}
{"molecule": "CC1=C(Br)C(=O)C(C(C)C)=C(Br)C1=O", "note": "[DBMIB, 2,5-dibromo-6-isopropyl-3-methyl-1,4-benzoquinone]", "values": [{"measurement": "integration value 2 (0.6 to 10 seconds after excitation) compared with standard sample", "setting": "0-second waiting time, DBMIB 322 μg/L", "result": "a large difference is not seen"}, {"measurement": "percentage (% oQ) of the oxidized plastoquinone", "setting": "10-second waiting time", "result": 4}, {"measurement": "increase (increment) of integration value 3 at the 10-second waiting time compared with standard sample", "setting": "10-second waiting time, DBMIB 322 μg/L, Ant-A 0.55 mg/L", "result": "lower than that of the standard sample"}, {"measurement": "percentage (% oQ) of the oxidized plastoquinone", "setting": "60-second waiting time", "result": 22}, {"measurement": "change (vQ) of redox reaction magnitude sQ", "setting": "DBMIB 322 μg/L, sQ of evaluation sample/sQ of standard sample (FIG. 43)", "result": 30}, {"measurement": "integration value 1 (0.1 to 0.5 seconds after excitation) compared with standard sample", "setting": "all conditions, DBMIB 322 μg/L", "result": "greater than those of the standard sample"}, {"measurement": "integration value 3 (10.1 to 50 seconds after excitation) compared with standard sample", "setting": "non-saturation, 0-second and 60-second waiting time, DBMIB 322 μg/L", "result": "a large difference was not seen"}, {"measurement": "integration value 2 (0.6 to 10 seconds after excitation) compared with standard sample", "setting": "non-saturation, 10-second and 60-second waiting time, DBMIB 322 μg/L", "result": "lower than that of the standard sample"}]}
{"molecule": "CCCCCC[C@H]1C(=O)O[C@H](C)[C@H](NC(=O)c2cccc(NC=O)c2O)C(=O)O[C@@H](C)[C@@H]1OC(=O)CC(C)C", "note": "[Ant-A, Antimycin A]", "values": [{"measurement": "integration value 1 (0.1 to 0.5 seconds after excitation)", "setting": "10-second waiting time, Ant-A 0.55 mg/L", "result": "increased in the same manner as in the 0-second waiting time case"}, {"measurement": "cyclic electron transport (cI) from the PSI", "setting": "10-second waiting time, Ant-A 0.55 mg/L (FIG. 44)", "result": "−12"}, {"measurement": "integration value 2 (0.6 to 10 seconds after excitation) compared with standard sample", "setting": "[1]", "result": "less than those of the standard sample"}, {"measurement": "integration value 3 (10.1 to 50 seconds after excitation) compared with standard sample", "setting": "[1]", "result": "less than those of the standard sample"}, {"measurement": "PSI electron accumulation change (eI)", "setting": "non-saturation case, Ant-A 0.55 mg/L, integration value 3 of evaluation sample/standard sample×100 (FIG. 44)", "result": 89}, {"measurement": "integration value 1 (0.1 to 0.5 seconds after excitation) compared with standard sample", "setting": "non-saturation, 0-second and 60-second waiting time, Ant-A 0.55 mg/L", "result": "a large difference was not seen"}]}
